Source: ChEMBL document CHEMBL5241134, “Discovery of orally bioavailable inhibitors of MALT1 with in vivo activity for psoriasis” (Bioorg Med Chem Lett, 2023)

How the values were obtained:
[1] = Inhibition of IL-2 production in PMA/ionomycin stimulated human Jurkat T cells; type: functional, cell-based
[2] = target: T1, Mucosa-associated lymphoid tissue lymphoma translocation protein 1 (Homo sapiens, UniProt Q9UDY8); test: Inhibition of MALT1 (unknown origin)
T1 sequence (Q9UDY8 whole entry): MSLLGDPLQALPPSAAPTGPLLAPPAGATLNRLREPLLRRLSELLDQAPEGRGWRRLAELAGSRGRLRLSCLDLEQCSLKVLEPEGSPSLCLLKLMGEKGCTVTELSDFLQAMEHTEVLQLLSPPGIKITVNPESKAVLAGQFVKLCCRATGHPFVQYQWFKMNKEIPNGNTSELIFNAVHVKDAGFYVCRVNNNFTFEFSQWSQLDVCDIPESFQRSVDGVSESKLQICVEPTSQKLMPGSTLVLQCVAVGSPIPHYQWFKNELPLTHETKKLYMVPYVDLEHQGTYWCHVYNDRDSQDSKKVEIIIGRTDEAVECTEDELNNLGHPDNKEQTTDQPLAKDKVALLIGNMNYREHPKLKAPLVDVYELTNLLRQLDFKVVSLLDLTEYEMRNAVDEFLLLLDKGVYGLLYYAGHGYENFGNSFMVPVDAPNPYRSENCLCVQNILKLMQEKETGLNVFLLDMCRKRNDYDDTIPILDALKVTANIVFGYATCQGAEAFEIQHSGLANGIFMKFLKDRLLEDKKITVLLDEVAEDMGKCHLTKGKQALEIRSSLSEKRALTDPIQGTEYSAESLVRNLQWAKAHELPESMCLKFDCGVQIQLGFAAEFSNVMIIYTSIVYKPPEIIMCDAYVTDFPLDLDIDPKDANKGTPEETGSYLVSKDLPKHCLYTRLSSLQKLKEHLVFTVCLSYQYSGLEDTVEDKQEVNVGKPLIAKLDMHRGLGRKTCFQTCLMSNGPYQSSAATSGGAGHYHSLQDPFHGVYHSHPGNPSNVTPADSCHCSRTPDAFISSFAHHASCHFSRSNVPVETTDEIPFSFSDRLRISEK

[3] = Apparent permeability of the compound in human Caco-2 cells; type: ADME, cell-based
[4] = Cmax in BALB/cAnNCrlCr mouse at 2 mg/kg, po administered as single dose; type: ADME, organism-based; set-up: dose 2 mg/kg, route po; conditions: in vivo
[5] = Total clearance in BALB/cAnNCrlCr mouse at 1 mg/kg, iv administered as single dose; type: ADME, organism-based; conditions: in vivo
[6] = Drug concentration in BALB/cAnNCrlCr mouse at 1 mg/kg, iv administered as single dose; type: ADME, organism-based; conditions: in vivo
[7] = Half-life in BALB/cAnNCrlCr mouse at 2 mg/kg, po administered as single dose; type: ADME, organism-based; conditions: in vivo
[8] = Oral bioavailability in BALB/cAnNCrlCr mouse at 2 mg/kg administered as single dose; type: ADME, organism-based; conditions: in vivo
[9] = AUC (0 to infinity) in BALB/cAnNCrlCr mouse at 1 mg/kg, iv administered as single dose; type: ADME, organism-based; set-up: dose 1 mg/kg, route iv; conditions: in vivo
[10] = AUC (0 to infinity) in BALB/cAnNCrlCr mouse at 2 mg/kg, po administered as single dose; type: ADME, organism-based; set-up: dose 2 mg/kg, route po; conditions: in vivo
[11] = Half-life in BALB/cAnNCrlCr mouse at 1 mg/kg, iv administered as single dose; type: ADME, organism-based; conditions: in vivo
[12] = Tmax in BALB/cAnNCrlCr mouse at 2 mg/kg, po administered as single dose; type: ADME, organism-based; conditions: in vivo

IC50 [2] | SMILES | other results
249 nM | N/C(=N\S(=O)(=O)c1cccs1)NCc1cc(-c2ccc(Cl)cc2)n(-c2ccc(Cl)cc2)n1 | IC50 [1]: 1290 nM
60 nM | CS(=O)(=O)N[C@H](C(=O)NCc1cc(-c2ccc(Cl)cc2)n(-c2ccc(Cl)cc2)n1)c1ccccc1 | IC50 [1]: > 10000 nM
262 nM | O=C(CCc1ccccc1)NCc1cc(-c2ccc(Cl)cc2)n(-c2ccc(Cl)cc2)n1 | 
4020 nM | CN(C)[C@@H](CO)C(=O)NCc1cc(-c2ccc(Cl)cc2)n(-c2ccc(Cl)cc2)n1 | 
3880 nM | CN(C)CC(=O)NCc1cc(-c2ccc(Cl)cc2)n(-c2ccc(Cl)cc2)n1 | 
280 nM | N[C@@H](Cc1ccccc1)C(=O)NCc1cc(-c2ccc(Cl)cc2)n(-c2ccc(Cl)cc2)n1 | 
1110 nM | NC(=O)/N=C(\N)NCc1cc(-c2ccc(Cl)cc2)n(-c2ccc(Cl)cc2)n1 | 
188 nM | O=C(Cc1ccccc1)NCc1cc(-c2ccc(Cl)cc2)n(-c2ccc(Cl)cc2)n1 | 
> 25000 nM | O=C(NCc1cc(-c2ccc(Cl)cc2)n(-c2ccc(Cl)cc2)n1)c1ccccc1 | 
774 nM | N/C(=N\S(=O)(=O)Cc1ccccc1)NCc1cc(-c2ccc(Cl)cc2)n(-c2ccc(Cl)cc2)n1 | 
34 nM | CS(=O)(=O)/N=C(\NCc1ccccn1)NCc1cc(-c2ccc(Cl)cc2)n(-c2ccc(Cl)cc2)n1 | 
227 nM | NC(C(=O)NCc1cc(-c2ccc(Cl)cc2)n(-c2ccc(Cl)cc2)n1)c1ccccn1 (configuration not stated) | 
53 nM | CS(=O)(=O)/N=C(/NCc1cc(-c2ccc(Cl)cc2)n(-c2ccc(Cl)cc2)n1)NCC1CC1 | IC50 [1]: 1640 nM
45 nM | CS(=O)(=O)/N=C(/NCc1cc(-c2ccc(Cl)cc2)n(-c2ccc(Cl)cc2)n1)N[C@H](CO)c1ccccc1 | 
53 nM | N[C@H](C(=O)NCc1cc(-c2ccc(Cl)cc2)n(-c2ccc(Cl)cc2)n1)c1ccccc1 | IC50 [1]: 2660 nM
401 nM | CS(=O)(=O)/N=C(\N)NCc1cc(-c2ccc(Cl)cc2)n(-c2ccc(Cl)cc2)n1 | 
159 nM | O=C(NCc1cc(-c2ccc(Cl)cc2)n(-c2ccc(Cl)cc2)n1)C(O)c1ccccc1 (configuration not stated) | 
60 nM | COc1cccc(S(=O)(=O)/N=C(\N)NCc2cc(-c3ccc(Cl)cc3)n(-c3ccc(Cl)cc3)n2)c1 | IC50 [1]: 2060 nM
56 nM | CC(=O)NC(C(=O)NCc1cc(-c2ccc(Cl)cc2)n(-c2ccc(Cl)cc2)n1)c1ccccn1 (configuration not stated) | IC50 [1]: 4170 nM
1430 nM | NC(=O)NCc1cc(-c2ccc(Cl)cc2)n(-c2ccc(Cl)cc2)n1 | 
2060 nM | CC(=O)N[C@H](C(=O)NCc1cc(-c2ccc(Cl)cc2)n(-c2ccc(Cl)cc2)n1)C(C)C | 

IC50 [2] | SMILES | other results
20 nM | CS(=O)(=O)/N=C(\NCc1cccc(Cl)c1)NCc1cc(-c2ccc(Cl)cc2)n(-c2ccc(Cl)cc2)n1 | 
762 nM | N/C(=N\S(=O)(=O)C1CCCCC1)NCc1cc(-c2ccc(Cl)cc2)n(-c2ccc(Cl)cc2)n1 | 
93 nM | N/C(=N\S(=O)(=O)c1ccccc1)NCc1cc(-c2ccc(Cl)cc2)n(-c2ccc(Cl)cc2)n1 | IC50 [1]: 1400 nM; Papp [3]: 3 ×10⁻⁶ cm/s; Cmax [4]: 560 ng/mL; clearance [5]: 3 mL/min/kg; Drug uptake [6]: 1920 ng/mL; half-life [7]: 4.82 h; bioavailability [8]: 39.9%; AUC(0-inf) [9]: 5570 ng·h/mL; AUC(0-inf) [10]: 4450 ng·h/mL; half-life [11]: 3.37 h; Tmax [12]: 2 h
562 nM | N/C(=N\S(=O)(=O)c1ccncc1)NCc1cc(-c2ccc(Cl)cc2)n(-c2ccc(Cl)cc2)n1 | 
31 nM | CS(=O)(=O)/N=C(\NCc1ccccc1)NCc1cc(-c2ccc(Cl)cc2)n(-c2ccc(Cl)cc2)n1 | IC50 [1]: 1100 nM
510 nM | Cn1ccc(S(=O)(=O)/N=C(\N)NCc2cc(-c3ccc(Cl)cc3)n(-c3ccc(Cl)cc3)n2)n1 | 
56 nM | N/C(=N\S(=O)(=O)c1cccc(F)c1)NCc1cc(-c2ccc(Cl)cc2)n(-c2ccc(Cl)cc2)n1 | IC50 [1]: 1350 nM
690 nM | CN(C)[C@@H](CO)CNC(=O)c1cc(-c2ccc(Cl)cc2)n(-c2ccc(Cl)cc2)n1 | 
> 25000 nM | O=C(NCCc1ccccc1)c1cc(-c2ccc(Cl)cc2)n(-c2ccc(Cl)cc2)n1 | 
53 nM | CN(C)[C@H](C(=O)NCc1cc(-c2ccc(Cl)cc2)n(-c2ccc(Cl)cc2)n1)c1ccccc1 | IC50 [1]: 1720 nM
1770 nM | CC(=O)NCc1cc(-c2ccc(Cl)cc2)n(-c2ccc(Cl)cc2)n1 | 
26 nM | CS(=O)(=O)/N=C(/NCc1cc(-c2ccc(Cl)cc2)n(-c2ccc(Cl)cc2)n1)NCc1cccs1 | 
1850 nM | CC(C)[C@H](N)C(=O)NCc1cc(-c2ccc(Cl)cc2)n(-c2ccc(Cl)cc2)n1 | 
1590 nM | N#C/N=C(\N)NCc1cc(-c2ccc(Cl)cc2)n(-c2ccc(Cl)cc2)n1 | 
42 nM | CC(=O)N[C@H](C(=O)NCc1cc(-c2ccc(Cl)cc2)n(-c2ccc(Cl)cc2)n1)c1ccccc1 | IC50 [1]: 5020 nM
848 nM | CCN/C(=N\S(C)(=O)=O)NCc1cc(-c2ccc(Cl)cc2)n(-c2ccc(Cl)cc2)n1 | 
1540 nM | CC(=O)/N=C(\N)NCc1cc(-c2ccc(Cl)cc2)n(-c2ccc(Cl)cc2)n1 | 
258 nM | N/C(=N\S(=O)(=O)C1CC1)NCc1cc(-c2ccc(Cl)cc2)n(-c2ccc(Cl)cc2)n1 | 
368 nM | N[C@@H](C(=O)NCc1cc(-c2ccc(Cl)cc2)n(-c2ccc(Cl)cc2)n1)c1ccccc1 | 
2190 nM | CS(=O)(=O)NCc1cc(-c2ccc(Cl)cc2)n(-c2ccc(Cl)cc2)n1 | 
